Experiment [1] concerns the target T1, human CB2 (Homo sapiens, UniProt P34972).
T1 construct: expressed in transfected cells; host or cells: CHO cells, stably transfected; crude membranes
Put plainly: CB2 receptor binding assay, [3H]CP-55,940, membranes of transfected CHO cells. Here is the method:
For CB1 receptor binding assay synaptosomal membranes from rat brains were used. Sabra male rats weighing ˜200 g were decapitated and their brains, without the brain stem, were quickly removed. Synaptosomal membranes were prepared from the brains by centrifugation and sucrose density gradient ultracentrifugation after their homogenization. The CB2 receptor binding assays were performed using crude membranes obtained from Chinese hamster ovary (CHO) cells stably transfected with the human CB2 cDNA.
Bound and free radioligand were separated by centrifugation (13,000 rpm for 6 min). Non-specific binding, which was determined with 50 nM unlabelled CP-55,940, was subtracted. Binding experiments were repeated 2-3 times and each point performed in triplicate. The Ki values were determined using the GraphPad Prism program (La Jolla, Calif., USA) and the Cheng-Prusoff equation.

Experiment [2] deals with Male Swiss mice. The experiment can be described thus: Elevated plus maze (EPM), Example 9. The format is in vivo. Particulars: 10 mg/kg ip. On the procedure:
(§1) Male Swiss mice (25-30 g) originated from the Central Animal Farm of the School of Medicine of Ribeirão Preto (FMRP-USP) were maintained in groups of five animals per box (41×33×17 cm) in a temperature controlled room (24±2° C.) with a 12×12 h light-dark cycle. They received water and food ad libitum throughout the study period.
(§2) Cannabidiol (CBD; THC Pharm, 15-60 mg/kg) and HU-485 (1-10 mg/kg) were administered intraperitoneally (ip). All drugs were dissolved in 2% Tween 80 in sterile saline.
The wood-made EPM was located in a sound attenuated and temperature controlled room (23° C.), with one incandescent light (40 W) placed 1.3 m away from the maze. The apparatus consisted of two opposing open arms (30×5 cm) perpendicular to two enclosed arms (30×5×40 cm), with a central platform common to all arms (5×5 cm). The apparatus was elevated 50 cm above the ground and an acrylic edge (1 cm) surrounded the open arms to prevent animal falls. […] The test lasted for 5 min and the animal behavior was analyzed with the help of the Anymaze Software (version 4.5, Stoelting), which indicated the position of the animal in the maze and calculated the percentage of entries (Peo) and time spent in the open arms (Pto) and the number of entries in the enclosed arms (EA). […]
(§3) Results were analyzed by one-way ANOVA followed by Duncan test. […]

Experiment [3] deals with Male Swiss mice. The experiment can be described thus: Forced swimming test (FST), Example 9. Format: in vivo. Particulars: doses of 3 and 10 mg/kg ip; p<0.05. On the procedure:
as §1, §2
Animals were submitted to 6 min of forced swimming in glass cylinders (height 25 cm, diameter 17 cm) containing 10 cm of water at 23-25° C. Immobility time (characterized by slow movements necessary to avoid drowning) was measured during the last 4-min period. The water was changed after each trial to prevent the influence of alarm substances (Zanelati et al., 2010). Antidepressants typically decrease immobility time in this test.
Results were analyzed by one-way ANOVA followed by Duncan test. Significant level was set at p<0.05.
Animals received an injection of vehicle (V, n=7 animals/group) or HU-485 and were tested in the EPM 20 min later. Immediately after the test they were submitted to the FST for 6 min. Data represents the means±SEM of immobility time in the FST and the % of open arm entries and time spent in these arms of the EPM. * indicates difference from V group.

The test system of experiment [4] is Male Swiss mice. The experiment can be described thus: Pre-pulse inhibition (PPI), impairment induced by amphetamine. The format is in vivo. Here is the method: as §1, §2
The PPI test was conducted simultaneously in two identical startle response systems (Med Associates, USA). A continuous acoustic signal provided a background white noise level of 65 dB. The pulse consists of a 105 dB white noise burst with a rise/decay of 5 ms and duration of 20 ms. The pre-pulse comprised pure 7000 Hz tones, 10 ms duration, with intensities set at 80, 85, and 90 dB. The setups were daily calibrated to ensure equal sensitivity throughout the experiments. Calibration was performed by adjusting the gain on the load cell amplifier to 150 arbitrary units (AU) at a standard weight appropriated for a 40 g mice. The limits of the load cell were −2047 to +2047 AU. Thirty min after the injection of the tested compounds mice received i.p. injections of amphetamine 10 mg/kg or vehicle. […] The first 10 pulse-alone trials allow for the within-session habituation to the startle stimulus and are not considered for PPI statistical analysis. The test consisted of 64 pseudo-random trials divided into eight different groups presented with an inter-stimulus interval of 30 s, and consisting of pulse alone (105 dB), pre-pulse alone (80, 85, or 90 dB), pre-pulse+pulse with 100 ms interval between pre-pulse and pulse, and no stimulus presented. […] Mean acoustic startle response to pulse-alone (P) trials and each pre-pulse+pulse (PP+P) trial was recorded for each subject. PPI was calculated by expressing the pre-pulse+pulse startle amplitude as a percentage of decrease from pulse-alone startle amplitude, according to the following formula: % PPI=100−[100×(PP+P/P)]. This transformation reduces statistical variability attributable to differences between animals and it is a direct PPI measure. Antipsychotic drugs typically attenuate PPI impairment induced by amphetamine.
as §3
Animals received a first injection of vehicle (V) or CBD, followed 30 min later, by vehicle (n=9) or amphetamine 10 mg/kg (V+amphetamine group=9 animals). PPI was evaluated at three-stimuli intensity (90, 85 and 80 dB). […]
Animals received a first injection of vehicle (V) or HU-485, followed 30 min later, by vehicle (n=7) or amphetamine 10 mg/kg (V+amphetamine group=7 animals). PPI was evaluated at three-stimuli intensity (90, 85 and 80 dB). […]

The values below come from patent US20190084909A1, “F[…] COMPOUNDS, COMPOSITIONS AND USES THEREOF” (YISSUM RESEARCH DEVELOPMENT COMPANY OF THE HEBREW …, priority 2015, published 2019).

By Ki is commonly meant a dissociation constant, usually derived from enzyme kinetics or from competition with a known ligand.

T1 sequence (P34972 whole entry): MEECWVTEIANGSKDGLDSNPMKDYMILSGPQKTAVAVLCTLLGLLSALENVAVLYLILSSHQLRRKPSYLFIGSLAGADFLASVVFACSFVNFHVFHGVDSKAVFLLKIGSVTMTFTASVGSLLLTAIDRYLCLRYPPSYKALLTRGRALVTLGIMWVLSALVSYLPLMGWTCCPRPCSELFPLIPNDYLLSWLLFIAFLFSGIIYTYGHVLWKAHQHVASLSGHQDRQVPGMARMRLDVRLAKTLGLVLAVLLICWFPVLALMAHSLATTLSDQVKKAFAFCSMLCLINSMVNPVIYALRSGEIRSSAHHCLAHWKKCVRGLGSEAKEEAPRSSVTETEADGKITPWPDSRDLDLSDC

`CCCCCc1cc(O)c(C2C=C(C)C(F)C[C@H]2C(C)C)c(O)c1` (stereo partly drawn) [HU-487] gave a Ki in experiment [1] of 4 to 5 µM.
Take `CCCCCc1cc(O)c(C2C=C(CF)CC[C@H]2C(C)C)c(O)c1` (stereo partly drawn) [HU-485]: the “number of enclosed arm entries” value in experiment [2] is reported as “without changing”. Further, the “percentage of time spent in the open arms of the EPM” value in experiment [2] (Duncan p<0.05) is “increased”. The “immobility time in the FST” value in experiment [3] is given as “decreased”. Further, the “effect on PPI by itself” value in experiment [4] (30 mg/kg, without amphetamine) is recorded as “did not impair PPI”. The “effect on PPI impairment by amphetamine” value in experiment [4] (HU-485 3, 10 and 30 mg/kg, any dose, amphetamine 10 mg/kg) is “not attenuated”.
